Data taken from US20230183249A1, “NEW TRIAZINOINDOLE COMPOUNDS” (JANSSEN PHARMACEUTICA NV, priority 2020, published 2023).

Tests used:
TNF = assay: PBMC assay, TNF cytokine levels after LPS stimulation; format: cell-based; conditions: human PBMCs, 100 ng/ml LPS for 6 hrs, TNF in supernatant via MSD
Protocol: (§1) Peripheral venous blood was collected from healthy individuals and human peripheral blood mononuclear cells (PBMCs) were isolated from blood by Ficoll-Histopaque (Sigma-Aldrich, A0561) density gradient centrifugation. After isolation, PBMCs were stored in liquid nitrogen for later use. Upon thawing, PBMC cell viability was determined in growth medium (RPMI media supplemented with 10% fetal bovine serum, 1% Pen-Strep and 1% L-glutamine). Compounds were spotted in a 1:3 serial dilution in DMSO and diluted to the final concentration in 30 μl medium in 96 well plates (Falcon, 353072). PBMCs were added at a density of 7.5×10^4 cells per well and incubated for 30 min in a 5% C02 incubator at 37° C. LPS stimulation was performed by addition of 100 ng/ml LPS (final concentration, Invivogen, tlrl-smlps) for 6 hrs followed by collection of cellular supernatant and the analysis of IL-1β (μM) and TNF cytokines levels (μM) via MSD technology according to manufacturers' guidelines (MSD, K151A0H).
The IC50 values (for IL-1β) and EC50 values (TNF) were obtained on compounds of the invention/examples, and are depicted in the following table: […]

NLRP3 = biological target: T1, NLRP3 (Homo sapiens, UniProt Q96P20); assay: PBMC assay, IL-1β release after LPS stimulation; format: cell-based; conditions: human PBMCs, 100 ng/ml LPS for 6 hrs, IL-1β in supernatant via MSD; read-out: IL1β IC50
T1 construct: human peripheral blood mononuclear cells (PBMCs) were isolated from blood; endogenous in cells; host or cells: primary human PBMCs from healthy donors
Protocol: The activity of a compound according to the present invention can be assessed by in vitro methods.
as §1, with “Compounds were spotted in a 1:3 serial dilution in DMSO and diluted to the final concentration in 30 μl medium in 96 well plates (Falcon, 353072).” left out

T1 sequence (Q96P20 whole entry): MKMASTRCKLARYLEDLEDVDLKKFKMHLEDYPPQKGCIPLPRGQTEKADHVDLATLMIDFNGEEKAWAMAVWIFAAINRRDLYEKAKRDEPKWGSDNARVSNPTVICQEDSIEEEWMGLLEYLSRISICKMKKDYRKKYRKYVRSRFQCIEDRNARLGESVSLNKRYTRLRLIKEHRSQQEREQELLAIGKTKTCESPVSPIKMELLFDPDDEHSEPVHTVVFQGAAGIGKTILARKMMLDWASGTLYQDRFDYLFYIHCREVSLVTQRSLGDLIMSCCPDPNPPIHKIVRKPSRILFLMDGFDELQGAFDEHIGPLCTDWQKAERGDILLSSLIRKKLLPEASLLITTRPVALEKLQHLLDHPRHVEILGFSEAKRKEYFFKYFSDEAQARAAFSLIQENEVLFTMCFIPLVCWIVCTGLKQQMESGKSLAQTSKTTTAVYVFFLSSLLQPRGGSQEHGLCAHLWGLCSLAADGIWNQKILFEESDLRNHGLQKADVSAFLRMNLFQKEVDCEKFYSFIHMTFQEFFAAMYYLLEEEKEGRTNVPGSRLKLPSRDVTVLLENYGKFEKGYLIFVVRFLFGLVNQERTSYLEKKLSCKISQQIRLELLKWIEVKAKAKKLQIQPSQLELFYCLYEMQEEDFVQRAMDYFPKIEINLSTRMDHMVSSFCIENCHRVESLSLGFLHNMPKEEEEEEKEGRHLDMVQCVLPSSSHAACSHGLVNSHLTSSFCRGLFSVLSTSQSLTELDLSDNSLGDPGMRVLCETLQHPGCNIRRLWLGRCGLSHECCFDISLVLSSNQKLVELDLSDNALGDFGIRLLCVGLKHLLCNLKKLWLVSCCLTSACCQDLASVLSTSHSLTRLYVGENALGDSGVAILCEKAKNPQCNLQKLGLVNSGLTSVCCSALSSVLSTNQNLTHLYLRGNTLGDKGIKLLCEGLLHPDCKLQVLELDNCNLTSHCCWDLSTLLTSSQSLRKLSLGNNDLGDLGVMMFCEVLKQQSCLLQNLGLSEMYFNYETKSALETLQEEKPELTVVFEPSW

Row | SMILES | EC50 (TNF) | IC50 (NLRP3) | melting point
1 | CCc1nn(CC(=O)Nc2ccccc2OC)c(=O)c2cc3ccccc3n12 [Final Cpd 17] | > 10 µM | 2.8 µM | 216.79 °C
2 | CN(C)c1nn(CC(=O)NC2CCOCC2)c(=O)c2cc3ccccc3n12 [Final Cpd 20] | > 10 µM | 0.31 µM | –
3 | CN(C)c1nn(CC(=O)N[C@H]2CC[C@H](O)CC2)c(=O)c2cc3ccccc3n12 [Final Cpd 21] | > 10 µM | 0.39 µM | –
4 | Cc1nn(CC(=O)NC2CC2)c(=O)c2cc3ccccc3n12 [Final Cpd 23, N-cyclopropyl-2-(4-methyl-1-oxo-[1,2,4]triazino[4,5-a]indol-2-yl)acetamide] | > 10 µM | 9.12 µM | –
5 | COc1nn(CC(=O)NC2CCOCC2)c(=O)c2cc3ccccc3n12 [Final Cpd 24, 2-(4-methoxy-1-oxo-[1,2,4]triazino[4,5-a]indol-2-yl)-N-tetrahydropyran-4-yl-acetamide] | > 10 µM | 1.17 µM | –
6 | O=C(Cn1nc(C2CCCC2)n2c(cc3ccccc32)c1=O)NC1CCOCC1 [Final Cpd 25] | > 20 µM | > 10 µM | –
7 | CC(C)Cc1nn(CC(=O)NC2CCOCC2)c(=O)c2cc3ccccc3n12 [Final Cpd 26] | > 10 µM | > 10 µM | –
8 | O=C(Cn1nc(-c2cccs2)n2c(cc3ccccc32)c1=O)NC1CCOCC1 [Final Cpd 27] | > 10 µM | > 10 µM | –
9 | O=C(Cn1nc(C2CCCCC2)n2c(cc3ccccc32)c1=O)NC1CCOCC1 [Final Cpd 28] | > 10 µM | > 10 µM | –
10 | CC(C)c1nn(CC(=O)NC2CC2)c(=O)c2cc3ccccc3n12 [Final Cpd 29] | > 10 µM | 0.66 µM | –
11 | CCc1nn(CC(=O)NC2CCOCC2)c(=O)c2cc3ccc(C)cc3n12 [Final Cpd 32] | > 10 µM | > 10 µM | 264.11 °C
12 | CCc1nn(CC(=O)NC2CCOCC2)c(=O)c2cc3cc(C)ccc3n12 [Final Cpd 34] | > 10 µM | 7.24 µM | 274.18 °C
13 | CCc1nn(CC(=O)NC2CCOCC2)c(=O)c2cc3cc(F)ccc3n12 [Final Cpd 35] | > 10 µM | > 10 µM | 285.66 °C
14 | CCc1nn(CC(=O)Nc2ccn(C(C)C)n2)c(=O)c2cc3ccccc3n12 [Final Cpd 38] | > 20 µM | 7.7 µM | 243 °C
15 | CN(C)c1nn(CC(=O)N[C@H]2C[C@@](C)(O)C2)c(=O)c2cc3ccc(F)cc3n12 [Final Cpd 40] | > 20 µM | 0.237 µM | –
16 | CC(C)c1nn(CC(=O)N[C@H]2C[C@@](C)(O)C2)c(=O)c2cc3ccccc3n12 [Final Cpd 41] | 15.4 µM | 0.052 µM | –
17 | CC(C)c1nn(CC(=O)N[C@H]2C[C@@](C)(O)C2)c(=O)c2cc3ccc(F)cc3n12 [Final Cpd 42] | 10.9 µM | 0.077 µM | –
18 | CCc1nn(CC(=O)N[C@H]2C[C@@](C)(O)C2)c(=O)c2cc3ccccc3n12 [Final Cpd 43] | > 20 µM | 0.086 µM | –
19 | CN(C)c1nn(CC(=O)N[C@H]2C[C@@](C)(O)C2)c(=O)c2cc3ccccc3n12 [Final Cpd 44] | > 20 µM | 0.057 µM | –
20 | CN(C)c1nn(CC(=O)Nc2ccc3nncn3c2)c(=O)c2cc3ccccc3n12 [Final Cpd 47] | > 20 µM | 0.052 µM | –
21 | CCc1nn(CC(=O)Nc2ccc3nncn3c2)c(=O)c2cc3ccccc3n12 [Final Cpd 48] | > 20 µM | 0.122 µM | –
22 | CC(C)c1nn(CC(=O)Nc2ccc3nncn3n2)c(=O)c2cc3ccccc3n12 [Final Cpd 49, N-([1,2,4]triazolo[4,3-b]pyridazin-6-yl)-2-(4-isopropyl-1-oxo-[1,2,4]triazino[4,5-a]indol-2(1H)-yl)acetamide] | 3.94 µM | 0.025 µM | –
23 | COc1nn(CC(=O)NC2CC2)c(=O)c2cc3ccccc3n12 [Final Cpd 50] | > 10 µM | 4.07 µM | –

Next, values leading:

Row | EC50 (TNF) | IC50 (NLRP3) | melting point | SMILES
24 | > 10 µM | 0.62 µM | – | O=C(Cn1nc(Cl)n2c(cc3ccccc32)c1=O)Nc1ccncn1 [Final Cpd 1, 2-(4-chloro-1-oxo-[1,2,4]triazino[4,5-a]indol-2-yl)-N-pyrimidin-4-yl-acetamide]
25 | > 10 µM | 1.89 µM | – | O=C(Cn1ncn2c(cc3ccccc32)c1=O)Nc1ccncn1 [Final Cpd 2]
26 | > 10 µM | 1.58 µM | – | O=C(Cn1ncn2c(cc3ccc(F)cc32)c1=O)Nc1ccncn1 [Final Cpd 3]
27 | > 10 µM | 1.54 µM | – | O=C(Cn1nc(C2CCC2)n2c(cc3ccccc32)c1=O)Nc1ccncn1 [Final Cpd 4]
28 | > 10 µM | 0.47 µM | – | O=C(Cn1nc(C(F)F)n2c(cc3ccccc32)c1=O)Nc1ccncn1 [Final Cpd 5]
29 | > 10 µM | > 10 µM | – | CC(F)(F)c1nn(CC(=O)Nc2ccncn2)c(=O)c2cc3ccccc3n12 [Final Cpd 6]
30 | > 10 µM | 3.5 µM | – | N#Cc1nn(CC(=O)Nc2ccncn2)c(=O)c2cc3ccccc3n12 [Final Cpd 7]
31 | > 10 µM | 5.8 µM | – | O=C(Cn1nc(-c2ncco2)n2c(cc3ccccc32)c1=O)Nc1ccncn1 [Final Cpd 8]
32 | > 10 µM | 1.91 µM | – | O=C(Cn1nc(C(F)(F)F)n2c(cc3ccccc32)c1=O)Nc1ccncn1 [Final Cpd 9]
33 | > 10 µM | 1.68 µM | 277.81 °C | CCc1nn(CC(=O)NC2CC2)c(=O)c2cc3ccc(F)cc3n12 [Final Cpd 10]
34 | > 10 µM | 0.41 µM | – | COc1ncccc1NC(=O)Cn1nc(C(C)C)n2c(cc3ccccc32)c1=O [Final Cpd 12]
35 | > 10 µM | 0.15 µM | – | Cc1cc(NC(=O)Cn2nc(C(C)C)n3c(cc4ccccc43)c2=O)ccn1 [Final Cpd 13]
36 | > 10 µM | 0.17 µM | – | CC(C)c1nn(CC(=O)Nc2ccncn2)c(=O)c2cc3ccccc3n12 [Final Cpd 14]
37 | > 10 µM | 0.63 µM | 232.81 °C | CCc1nn(CC(=O)Nc2cccnc2)c(=O)c2cc3ccccc3n12 [Final Cpd 15]
38 | > 10 µM | 0.76 µM | – | O=C(Cn1nc(C2CC2)n2c(cc3ccccc32)c1=O)Nc1ccncn1 [Final Cpd 18]
39 | > 10 µM | 1.44 µM | – | CC(O)c1nn(CC(=O)Nc2ccncn2)c(=O)c2cc3ccccc3n12 (stereo not shown) [Final Cpd 22, 2-[4-(1-hydroxyethyl)-1-oxo-[1,2,4]triazino[4,5-a]indol-2-yl]-N-pyrimidin-4-yl-acetamide]
40 | > 10 µM | > 10 µM | 248.91 °C | CCc1nn(CC(=O)Nc2ccncn2)c(=O)c2cc3ccc(C)cc3n12 [Final Cpd 30]
41 | > 10 µM | 0.79 µM | – | CCc1nn(CC(=O)Nc2ccncc2)c(=O)c2cc3ccc(F)cc3n12 [Final Cpd 31]
42 | > 10 µM | 0.31 µM | – | CCc1nn(CC(=O)Nc2ccncn2)c(=O)c2cc3ccc(F)cc3n12 [Final Cpd 33]
43 | > 10 µM | 7.24 µM | – | CCc1nn(CC(=O)Nc2ccncn2)c(=O)c2cc3cc(F)ccc3n12 [Final Cpd 36]
44 | > 10 µM | > 10 µM | – | CCc1nn(CC(=O)Nc2ccncn2)c(=O)c2cc3cc(C)ccc3n12 [Final Cpd 37]
45 | > 20 µM | 0.176 µM | – | CCc1nn(CC(=O)N[C@H]2C[C@@](C)(O)C2)c(=O)c2cc3ccc(F)cc3n12 [Final Cpd 39, 2-{4-ethyl-7-fluoro-1-oxo-[1,2,4]triazino[4,5-a]indol-2(1H)-yl}-N-((1s,3s)-3-hydroxy-3-methylcyclobutyl)acetamide]
46 | > 20 µM | 0.044 µM | – | CC(C)c1nn(CC(=O)Nc2ccc3nncn3c2)c(=O)c2cc3ccc(F)cc3n12 [Final Cpd 46]
